Assay results as given in patent US12319736B2, “Combination of antibody-drug conjugate and immune checkpoint inhibitor” (DAIICHI SANKYO COMPANY, LIMITED, priority 2016, dated 2025).

Assays:
CT26.WT-hHER2 cells [1] = assay: Analysis of in vitro cancer cells, MHC class I by flow cytometry (Evaluation Example 8); format: cell-based, mouse; settings: 0.0625-1 μM, 24 hours, vs DMSO, Dunnett's test
Method: (§1) To culture solution for CT26.WT-hHER2 cells, the compound (A) was added to a concentration of 0.0625 μM, 0.125 μM, 0.25 μM, 0.5 μM, or 1 μM. For a control, DMSO in a quantity equal to that of the compound (A) was added. After 24 hours, staining was performed by using PE labeled anti-human Her2/neu (340552, Becton Dickinson) and FITC labeled anti-mouse H-2Dd (110606, BioLegend), and expression levels of MHC class I on cancer cells were determined with flow cytometry. Dead cells had been stained with a LIVE/DEAD Fixable Near-IR Dead Cell Stain Kit purchased from Thermo Fisher Scientific, and excluded from the analysis. The mean fluorescence intensity (MFI) of MHC class I was calculated, and MFI for cells treated with an Isotype control was subtracted from the MFI for stained cells, and the resulting value was used as adjusted MFI. Comparison between the control group and the compound (A) group was performed by using Dunnett's test, P values were expressed as numerical values to the fourth decimal place, and values of P<0.05 (two-tailed test) were regarded as significant differences.

CT26.WT-hHER2 cells [2] = assay: Analysis of in vitro cancer cells treated with different compounds, MHC class I (Evaluation Example 17); format: cell-based, mouse; settings: 20 nM, 100 nM, 500 nM; vs control group, Dunnett's test; agents: compound (A), DM1-SMe, DM4-SMe, MMAE
Method: as §1
Expression levels of MHC class I were determined for cancer cells treated with different compounds. […]

[3] = test system: bone marrow-derived dendritic cells; assay: Effect on in vitro dendritic cells, flow cytometry (Evaluation Example 5); format: cell-based, mouse; settings: 0.0625-1 μM, 24 hours, compared with DMSO
Method: BALB/c mice were euthanized, and bone marrow cells were then separated from each femur, and cultured with an RPMI 1640 medium containing 10% FBS, 55 μM 2-mercaptoethanol, 100 U/mL penicillin, […], 1 mM sodium pyruvate, 1×non-essential amino acid, 2 mM L-glutamine, and 10 ng/mL mouse GM-CSF for 11 days to induce bone marrow-derived dendritic cells. To the culture solution for the induced dendritic cells, the compound (A) was added to a concentration of 0.0625 μM, 0.125 μM, 0.25 μM, 0.5 μM, or 1 μM. For a control, DMSO in a quantity equal to that of the compound (A) was added. After 24 hours, staining was performed by using a Pacific Blue labeled anti-mouse CD45 Antibody (103126, BioLegend), PE labeled anti-mouse CD86 (B7-2) (553692, Becton Dickinson), APC labeled anti-mouse CD11c (550261, Becton Dickinson), and FITC labeled anti-mouse MHC Class II (I-A/I-E) (11-5321-85, Thermo Fisher Scientific), and analysis was performed by using an FACS Canto II. Dead cells had been stained with a LIVE/DEAD Fixable Near-IR Dead Cell Stain Kit purchased from Thermo Fisher Scientific, and excluded from the analysis.

topoisomerase I = target: T1, topoisomerase I (Homo sapiens, UniProt P11387); settings: Ogitani Y. et al., Clinical Cancer Research 2016; cited from earlier work
T1 sequence (P11387 1-765): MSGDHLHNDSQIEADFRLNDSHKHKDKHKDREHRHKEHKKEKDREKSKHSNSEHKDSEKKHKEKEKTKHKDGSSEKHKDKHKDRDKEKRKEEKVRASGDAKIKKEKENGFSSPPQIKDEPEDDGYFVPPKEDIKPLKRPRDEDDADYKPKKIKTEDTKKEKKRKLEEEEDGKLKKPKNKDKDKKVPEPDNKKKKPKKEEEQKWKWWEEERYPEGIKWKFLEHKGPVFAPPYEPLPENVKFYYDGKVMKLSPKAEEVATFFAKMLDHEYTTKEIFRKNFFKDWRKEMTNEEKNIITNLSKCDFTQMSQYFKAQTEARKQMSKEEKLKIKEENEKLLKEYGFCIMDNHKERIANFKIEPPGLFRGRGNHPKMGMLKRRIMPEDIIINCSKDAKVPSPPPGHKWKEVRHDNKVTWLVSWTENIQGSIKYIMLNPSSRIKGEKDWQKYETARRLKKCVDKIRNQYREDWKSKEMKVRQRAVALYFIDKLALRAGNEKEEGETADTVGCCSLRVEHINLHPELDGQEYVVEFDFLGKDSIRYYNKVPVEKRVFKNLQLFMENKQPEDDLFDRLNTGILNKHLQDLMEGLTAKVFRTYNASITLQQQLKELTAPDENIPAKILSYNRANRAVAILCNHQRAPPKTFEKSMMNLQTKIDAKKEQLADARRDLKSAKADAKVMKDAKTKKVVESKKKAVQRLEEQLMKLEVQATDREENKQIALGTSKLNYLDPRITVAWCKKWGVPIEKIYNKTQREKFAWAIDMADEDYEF

## CC[C@@]1(O)C(=O)OCc2c1cc1n(c2=O)Cc2c-1nc1cc(F)c(C)c3c1c2[C@@H](NC(=O)CO)CC3 [compound (A)]
CT26.WT-hHER2 cells [1]
  expression level of MHC class I on CT26.WT-hHER2 cells (adjusted MFI): significantly elevated
CT26.WT-hHER2 cells [2]
  expression level of MHC class I on CT26.WT-hHER2 cells: maximum elevation effect
[3]
  expression level of CD86 on CD11c-positive cells: elevated
  expression level of MHC class II on CD11c-positive cells: elevated
Topoisomerase I
  topoisomerase I inhibitory effect: confirmed to have a topoisomerase I inhibitory effect
